Assay results reported in patent US20090105238A1, “Compounds and Relative use for the Control of Phytopathogens” (ISAGRO RICERCA S.r.l, priority 2005, published 2009).

What was measured:
Plasmopara viticola = assay: Fungicidal (preventive) activity against Peronospora of vines, leaf spray; assay type: in vivo, Plasmopara viticola on vine (cultivar Dolcetto); details: for Activity 125 ppm / Activity 250 ppm: 7-day preventive activity; for Activity 125 ppm: scale 0 to 100 (healthy plant); for Activity 250 ppm: scale 0 (completely infected plant) to 100 (healthy plant); for Activity (dose ppm): 7-day preventive, scale 0-100
Protocol: Determination of the Fungicidal Activity Against Peronospora of Vines (Plasmopara viticola) […] After remaining 24 hours in a conditioned environment, the plants were sprayed on both sides of the leaves with an aqueous suspension of conidia of Plasmopara viticola (20,000 conidia per cm^3). The plants are kept in a humidity saturated environment at 21° C. for the incubation period of the fungus.

Puccinia recondita = assay: Fungicidal (preventive) activity against wheat rust, leaf spray; assay type: in vivo, Puccinia recondita on wheat (cultivar Gemini); details: 5-day preventive, scale 0-100
Protocol: Determination of the Fungicidal Activity Against Wheat Rust (Puccinia recondita)
(§1) Leaves of wheat plants (cultivar Gemini), grown in vases in a conditioned environment (20±1° C., 70% relative humidity) are treated by spraying both sides of the leaves with compounds 1, 2 and 3, dispersed in a hydroacetone solution at 20% by volume in acetone. […]
(§2) The plants are kept in a humidity saturated environment at a temperature ranging from 18 to 24° C. for the incubation period of the fungus.
At the end of this period (14 days), the fungicidal activity is evaluated according to an evaluation percentage scale from 0 (completely infected plant) to 100 (healthy plant).

Erysiphe graminis = assay: Fungicidal (preventive) activity against oidium of wheat, leaf spray; assay type: in vivo, Erysiphe graminis on wheat (cultivar Gemini); details: 5-day preventive, scale 0-100
Protocol: Determination of the Fungicidal Activity Against Oidium of Wheat (Erysiphe graminis)
as §1, §2
At the end of this period (12 days), the fungicidal activity is evaluated according to an evaluation percentage scale from 0 (completely infected plant) to 100 (healthy plant).

PR1 = assay: Gene response (PR1 expression, quantitative PCR) in treated seedlings; assay type: in vivo, arabidopsis thaliana; details: 800 ppm and 1600 ppm; leaves collected after 24 hours of treatment; compared with blank and glycine betaine (FIG. 1)
Protocol: Determination of the Gene Response of the Compounds Having General Formula (I) and their Mixtures with Other Fungicides
Four-week-old seedlings of arabidopsis thaliana were treated with the compounds having general formula (I) or their mixtures with other fungicides and the leaves were collected after 24 hours of treatment.
The total RNA was extracted from 0.05 g of fresh tissue using the “Genelute mammalian total RNA kit (Sigma)” according to the protocol indications. The cDNA were synthesized using “RevertAid™ M-MuLV Reverse Transcriptase” commercialized by Fermentas Life Sciences according to the following protocol: 2 μg of total RNA were mixed with 0.5 μg of oligo(dT) 18.
Deionized water (nuclease free) was then added to bring the reaction volume to 11 μl, the reaction was subsequently incubated at 70° C. for 5 minutes and then cooled in ice.
The following reagents were then added to the mixture:
4 μl of 5× reaction buffer, 10 mM of dNTP mix, 20 units of Ribonuclease inhibitor.
The reaction was incubated at 37° C. for 5 minutes, 200 units of RevertAid™ M-MuLV Reverse Transcriptase were subsequently added to the mixture and the reaction was incubated at 42° C. for 60 minutes. […]
A quantitative PCR analysis was effected on the cDNA using a mixture of primer/competimers of the ribosomal RNA 18S as internal standard in a ratio of 9:1. […]

## CCCCCCCCCCCC[N+](C)(C)CC(O)CS(=O)(=O)[O-] (centres unmarked) [Compound 5, Laurylhydroxysultaine]
Plasmopara viticola
  Activity 125 ppm: 85
  Activity 250 ppm: 99

## CCCCCCCCCCCC(=O)NCCC[N+](C)(C)CC(=O)[O-] [Compound 7, Laurylamidopropylbetaine]
Plasmopara viticola
  Activity 125 ppm: 95
  Activity 250 ppm: 100

## CCCCCCCCCCCC(=O)NCCC[N+](C)(C)C(C(=O)[O-])C(C)C (centres unmarked) [Compound 24, laurylamidopropyl[L]valinebetaine]
Plasmopara viticola
  Activity 125 ppm: 88
  Activity 250 ppm: 99

## CCCCCCCCCCCC(=O)NCCC[N+]1(C)CCCC1C(=O)[O-] (centres unmarked) [Compound 25, laurylamidopropyl[L]prolinebetaine]
Plasmopara viticola
  Activity 125 ppm: 95
  Activity 250 ppm: 100

## CCCCCCCCCCCC(=O)NCCC[N+](C)(C)C(C)C(=O)[O-] (centres unmarked) [Compound 26, laurylamidopropyl[L]alaninebetaine]
Plasmopara viticola
  Activity 125 ppm: 90
  Activity 250 ppm: 95

## CCCCCCCCCCCC(=O)NCCC[N+](C)(C)C(CC(=O)[O-])c1ccccc1 (stereo not drawn) [Compound 28, laurylamidopropyl- β-phenylalaninebetaine]
Plasmopara viticola
  Activity 125 ppm: 90
  Activity 250 ppm: 99

## CCCCCCCCCCCC(=O)NCCC[N+](C)(C)C(CC(=O)[O-])c1ccc(Cl)cc1 (stereo not drawn) [Compound 29, laurylamidopropyl-β-4-chlorophenylalaninebetaine]
Plasmopara viticola
  Activity 125 ppm: 90
  Activity 250 ppm: 95

## CCCCCCCCCCCC(=O)NCCC[N+](C)(C)CCC(=O)[O-] [Compound 30, laurylamidopropyl- β-alaninebetaine]
Plasmopara viticola
  Activity 125 ppm: 85
  Activity 250 ppm: 90

## C[N+](C)(C)CC(=O)[O-] [Glycine betaine, reference compound]
Plasmopara viticola; 30 ppm
  Activity (dose ppm): 30

## COC(=O)CC(NC(=O)[C@@H](NC(=O)OC(C)C)C(C)C)c1ccc(Cl)cc1 (some centres unmarked) [IR5885, reference compound]
Plasmopara viticola; 0.22 ppm
  Activity (dose ppm): 15
Plasmopara viticola; 0.45 ppm
  Activity (dose ppm): 41
Puccinia recondita; 500 ppm
  Activity (dose ppm): 15
Erysiphe graminis; 500 ppm
  Activity (dose ppm): 20

## FC(F)C(F)(F)OCC(Cn1cncn1)c1ccc(Cl)cc1Cl (centres unmarked) [Tetraconazole, tetraconazole]
Plasmopara viticola; 30 ppm
  Activity (dose ppm): 20
Puccinia recondita; 30 ppm
  Activity (dose ppm): 58
Erysiphe graminis; 1.8 ppm
  Activity (dose ppm): 48

## Cholanylamidopropylbetaine [Compound 11]
Plasmopara viticola
  Activity 125 ppm: 90
  Activity 250 ppm: 94

## Cholesterylcarbonylamidopropylbetaine [Compound 10]
Plasmopara viticola
  Activity 125 ppm: 90
  Activity 250 ppm: 95

## Cocamidopropyl- β-4-chlorophenylalaninebetaine [Compound 36]
Plasmopara viticola
  Activity 125 ppm: 85
  Activity 250 ppm: 94

## Cocamidopropyl- β-alaninebetaine [Compound 37]
Plasmopara viticola
  Activity 125 ppm: 86
  Activity 250 ppm: 98

## Cocamidopropyl-β-phenylalaninebetaine [Compound 35]
Plasmopara viticola
  Activity 125 ppm: 89
  Activity 250 ppm: 95

## Cocamidopropyl[L]phenylglycinebetaine [Compound 34]
Plasmopara viticola
  Activity 125 ppm: 88
  Activity 250 ppm: 97

## Cocamidopropyl[L]prolinebetaine [Compound 32]
Plasmopara viticola
  Activity 125 ppm: 88
  Activity 250 ppm: 95

## Cocamidopropyl[L]valinebetaine [Compound 31]
Plasmopara viticola
  Activity 125 ppm: 85
  Activity 250 ppm: 98

## Cocamidopropylbetaine [Compound 8]
Plasmopara viticola
  Activity 125 ppm: 98
  Activity 250 ppm: 100
Plasmopara viticola; 30 ppm
  Activity (dose ppm): 30
Puccinia recondita; 125 ppm
  Activity (dose ppm): 29 (125 ppm)
PR1
  gene response: exceptional gene response
Erysiphe graminis; 500 ppm
  Activity (dose ppm): 20 (500 ppm)

## Cocamidopropylhydroxysultaine [Compound 9]
Plasmopara viticola
  Activity 125 ppm: 95
  Activity 250 ppm: 100

## cocamidopropyl[L]alaninebetaine [Compound 33]
Plasmopara viticola
  Activity 125 ppm: 85
  Activity 250 ppm: 96
